Data published in US7781641B2, “Absorbent article” (Kao Corporation, priority 2003, dated 2010).

Test: Method of measuring viscosity (tuning fork type vibration mode viscometer)
Type: physicochemical
Procedure: Measurement is conducted using a tuning fork type vibration mode viscometer (VIBRO NISCOMETERCJV5000 (manufactured by A&D Company Limited) is typically used in this embodiment). An oily skin care agent heated previously at about 100° C. is gradually cooled to room temperature, and viscosity at the predetermined temperature is measured.
“Viscosity of a diamide derivative” in the present invention was measured by the same measuring method as used for the viscosity of an oily skin care agent in the above mentioned first embodiment.

Q: With `CCCCCCCCCCCCCCCCOCC(O)CN(CCO)C(=O)CCCCCCCCCCCCCCC` (stereo not shown) [Monoamide of the formula (III)] as the compound, how does the “viscosity at 36° C.” value read?
A: 1000 mPa·s
